pIC50, pKd: −log10 of the molar value.
What was measured:
[1] = biological target: T1, Mitogen-activated protein kinase 14 (Homo sapiens, UniProt Q16539); test: Kinase Activity Assay; conditions: pH 7
Protocol: In vitro kinase activity and selectivity was determined by using SelectScreen kinase profiling Z'-LYTE assay from Invitrogen.

[2] = biological target: T1, Mitogen-activated protein kinase 14; test: Fluorescence-Based Competition Assay; conditions: pH 7
Description: The competitive binding between test compounds and a fluorescence p38 alpha inhibitor, SK&F 86002.

T1 sequence (Q16539 whole entry): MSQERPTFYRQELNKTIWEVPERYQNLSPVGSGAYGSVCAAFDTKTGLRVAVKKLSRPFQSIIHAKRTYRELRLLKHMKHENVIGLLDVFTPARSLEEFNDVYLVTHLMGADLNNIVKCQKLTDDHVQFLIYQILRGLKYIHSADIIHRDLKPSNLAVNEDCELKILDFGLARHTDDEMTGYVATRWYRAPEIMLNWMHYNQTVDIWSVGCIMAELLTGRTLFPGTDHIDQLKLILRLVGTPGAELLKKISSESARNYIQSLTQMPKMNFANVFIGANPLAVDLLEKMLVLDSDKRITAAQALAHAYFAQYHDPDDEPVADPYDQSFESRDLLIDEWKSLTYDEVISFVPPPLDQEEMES

- pIC50 [1]: 6.15
- pKd [1]: 6.12
- pIC50 [2]: 5.25
SMILES: C=C1SN(C)c2ccc(S(=O)(=O)Nc3ccccc3N3CCCCC3)cc21 [BI-12H11]

From BindingDB's records for doi:10.1021/cb700025j (Burnham Institute for Medical Research, 2007)
